Data: the NIST ThermoML archive (doi:10.1021/je9000922)
Numbers after ± are expanded uncertainties.

Settings: 355.65 K; Liquid

Question: Which “vapor or sublimation pressure” value does the source give for `CC(C)O` [propan-2-ol] here?
Answer: 101.32 ± 3 kPa
